Measured values taken from ChEMBL document CHEMBL1150079, “Oxygenated Clerosterols Isolated from the Marine Alga Codium arabicum” (1995).
Values after ≈ are worked out from the molar mass of the structure shown.

Legend:
Assay type in all cases: functional
HT-29 = assay: Cytotoxicity against human HT-29 cells after 6 days by MTT assay; conditions: HT-29, 144 h, read-out: ED50 (the source's name)
KB = assay: Cytotoxicity against human KB cells after 3 days by MTT assay; conditions: 72 h, read-out: ED50 (the source's name)
P388 = assay: Cytotoxicity against mouse P388 cells after 3 days by MTT assay; conditions: P388, 72 h, read-out: ED50 (the source's name)
A549 = assay: Cytotoxicity against human A549 cells after 6 days by MTT assay; conditions: A549, 144 h, read-out: ED50 (the source's name)

| SMILES | EC50 (HT-29) [µg/mL] | EC50 (KB) [µg/mL] | EC50 (P388) [µg/mL] | EC50 (A549) [µg/mL] |
| --- | --- | --- | --- | --- |
| C=C(C)[C@@H](CC)CC[C@@H](C)[C@H]1CC[C@H]2[C@@H]3CC=C4C[C@@H](O)CC[C@]4(C)[C@H]3CC[C@]12C [CLEROSTEROL] | 43.1 (≈ 104 µM) | > 50 | 1.7 (≈ 4.12 µM) | 0.3 (≈ 0.727 µM) |
| C=C(C)[C@@H](CC)CC[C@@H](C)[C@H]1CC[C@H]2[C@@H]3C(=O)C=C4C[C@@H](O)CC[C@]4(C)[C@H]3CC[C@]12C | 2 (≈ 4.69 µM) | 1 (≈ 2.34 µM) | 0.8 (≈ 1.87 µM) | 1.2 (≈ 2.81 µM) |
| C=C(C)[C@@H](CC)CC[C@@H](C)[C@H]1CC[C@H]2[C@@H]3[C@H](O)C=C4C[C@@H](O)CC[C@]4(C)[C@H]3CC[C@]12C | 0.6 (≈ 1.4 µM) | 1.1 (≈ 2.57 µM) | 0.2 (≈ 0.467 µM) | 0.5 (≈ 1.17 µM) |
| C=C(C)[C@@H](CC)CC[C@@H](C)[C@H]1CC[C@H]2[C@@H]3C[C@@H](O)C4=CC(=O)CC[C@]4(C)[C@H]3CC[C@]12C | 0.3 (≈ 0.703 µM) | 1.3 (≈ 3.05 µM) | 0.7 (≈ 1.64 µM) | 2.1 (≈ 4.92 µM) |
| C=C(C)[C@@H](CC)CC[C@@H](C)[C@H]1CC[C@H]2[C@@H]3C=C[C@@]4(OO)C[C@@H](O)CC[C@]4(C)[C@H]3CC[C@]12C | 0.9 (≈ 2.02 µM) | 1 (≈ 2.25 µM) | 0.5 (≈ 1.12 µM) | 1.1 (≈ 2.47 µM) |
| C=C(C)[C@@H](CC)CC[C@@H](C)[C@H]1CC[C@H]2[C@@H]3[C@H](OO)C=C4C[C@@H](O)CC[C@]4(C)[C@H]3CC[C@]12C | 1 (≈ 2.25 µM) | 1 (≈ 2.25 µM) | 0.4 (≈ 0.899 µM) | 0.5 (≈ 1.12 µM) |
